{"source": "patent US5663151A", "about": "“Sulfated α-glycolipid derivatives as cell adhesion inhibitors” (Bristol-Myers Squibb Company, priority 1995, dated 1997)", "key": {"P-selectin [1]": {"biological_target": "T1, P-selectin (Homo sapiens, UniProt P16109)", "T1 construct": "consists of the human lectin domain, the EGF domain, and two complement repeats of the human selectins; made in house", "T1 sequence (P16109 with tags, fused parts or gaps limits assumed)": "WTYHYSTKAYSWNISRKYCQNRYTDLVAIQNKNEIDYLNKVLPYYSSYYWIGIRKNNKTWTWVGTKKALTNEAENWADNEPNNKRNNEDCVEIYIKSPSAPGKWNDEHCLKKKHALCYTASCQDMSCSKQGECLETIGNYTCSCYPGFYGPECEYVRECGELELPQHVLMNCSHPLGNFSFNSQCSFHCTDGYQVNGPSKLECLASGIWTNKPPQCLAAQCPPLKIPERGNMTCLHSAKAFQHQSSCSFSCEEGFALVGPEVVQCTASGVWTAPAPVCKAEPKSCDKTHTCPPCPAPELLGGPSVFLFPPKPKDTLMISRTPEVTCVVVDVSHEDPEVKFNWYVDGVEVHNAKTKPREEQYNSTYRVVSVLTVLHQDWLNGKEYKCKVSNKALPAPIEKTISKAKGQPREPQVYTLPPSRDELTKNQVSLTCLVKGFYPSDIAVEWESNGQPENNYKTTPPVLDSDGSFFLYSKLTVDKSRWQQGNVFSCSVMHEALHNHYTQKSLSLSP", "assay": "P-selectin binding ELISA to immobilized sulfatides (cell free)", "settings": "inhibition of P-selectin binding to immobilized sulfatide", "experimental": "Based on the availability of soluble forms of P-selectin prepared as described by Aruffo, A., et al., Cell, 67, 35-44 (1991), a binding ELISA based assay modified from Foxall, et al., J., Cell Biol., 117, 895-902 (1992) was developed to measure inhibitors of P-selectin binding to immobilized sulfatides. Such inhibitors were tested in the assay described below.\n0.1 ml of sulfatide (SIGMA) or lysosulfatide (SIGMA) each at 1 μg/ml in MeOH were added to the wells of a 96-well ELISA plate (ProBind, Falcon) and allowed to dry overnight at room temperature. The next day the antigen coated plates were blocked for 1.5 hours at room temperature with 5% BSA (ICN) in buffer containing 20 mM Hepes and 0.15M NaCl, pH 8.0. Wild type P-selectin and mutants thereof were first mixed with HRP-conjugated goat anti-human lgG (Fisher Scientific), serially diluted and then incubated for 30 minutes at 37° C. in buffer containing 20 mM Hepes, 0.15M NaCl, 1% BSA and 0.8 mM CaCl2, pH 8.0 prior to addition to the BSA blocked plates. Following the 30 minute preincubation, the fusion protein-HRP conjugate immunocomplexes were incubated on the blocked antigen coated plates for 45 minutes at 37° C. in the presence or absence of the test compounds and then washed to remove any unbound proteins. Bound complexes were detected by addition of substrate buffer (95 mM NaOAc.3H2 O, 5 mM citric acid monohydrate, 1.4 mM urea/H2O2) containing 3, 3', 5, 5' Tetramethylbenzidine (SIGMA). Reactions were stopped by the addition of 3N sulfuric acid and the absorbance read on an ELISA reader at dual wavelengths 450 and 630 nm. The efficacy of these compounds was compared to that of sulfatide (positive control) or to lysosulfatide (negative control). The data is obtained as percent inhibition of specific binding [formula] and a plot of dose vs. percent inhibition of Rg binding is generated in which IC50 (μM) is calculated and reported as cell free data in Table 1."}, "P-selectin Rg": {"biological_target": "T2, P-selectin Rg (Homo sapiens, UniProt P16109)", "T2 construct": "consists of the human lectin domain, the EGF domain, and two complement repeats of the human selectins; made in house", "T2 sequence (P16109 with tags, fused parts or gaps limits assumed)": "as above", "assay": "HL-60 cell binding to P-selectin Rg", "format": "cell-based", "settings": "HL-60 cells, binding to P-selectin Rg coated wells", "experimental": "2. HL-60 Cell Binding to P- and E-Selectin RG\nThe chimeric P- and E-selectin receptor globulin (Rg) consists of the human lectin domain, the EGF domain, and two complement repeats of the human selectins fused to the hinge, CH1 and CH2 domains of human IgG1. These proteins were prepared as described by Aruffo, et al., Cell (1991) 67: 35-44; Walz, et al., Science (1990) 250, 1132-1135.\nThe HL-60 cell line, obtained from the American Type Culture Collection, ATCC No. CCL240, was employed to investigate P-selectin Rg binding. Assays were done in 96-well tissue culture dishes. The wells were first coated with 0.5 ug goat anti-human Fc antiserum overnight, and nonspecific binding sites were blocked by incubation of the wells with 1% nonfat dry milk in phosphate buffered saline (PBS containing 0.9 mM CaCl2 and 0.8 mM MgSO4) for 30 minutes. The Rg was then bound to the anti Fc-coated wells by incubating 50 ng in 50 ul of PBS for two hours. Cells, washed twice and resuspended in PBS to remove traces of medium components, were labeled with 10 uM calcein acetoxy methyl ester for 30 minutes at 3×10^7 cells per ml at room temperature. Serum-containing medium (RPMI with 20% fetal calf serum) was added, and the cells washed, followed by resuspension in PBS and a further spin. The labeled cells, resuspended in PBS, were added to twice washed Rg-containing wells at 200,000 per well. Following a 30 minute incubation with slow shaking, the wells were aspirated and washed three times with PBS to remove unbound cells. To certain wells were added known numbers of cells for determination of a standard curve of fluorescent units per cell. The fluorescence on the plate was quantitated using a fluorescent plate reader. Following subtraction of a blank representing the binding of cells to non-Rg containing wells (<5000 cells), the specific binding to P- or E- selectin was determined.\nInhibitors of cell binding\nTest compounds were prepared by dissolution to a final concentration of 20 mg/ml in dimethyl sulfoxide (DMSO), diluted in PBS to 2 mg/ml, and briefly sonicated prior to use. The Rg coated wells were preincubated at room temperature for 15 minutes with the inhibitor, and 200,000 cells were added to yield the final indicated inhibitor concentration in 160 ul of PBS. The data is obtained as percent inhibition of specific binding: [formula] and a plot of dose vs. percent inhibition of Rg binding is generated in which IC50 (μM) is calculated and reported in Table 1."}, "rats": {"system": "rats", "assay": "Reverse passive Arthus reaction (RPA) in rats", "format": "in vivo, Male Sprague Dawley rats", "settings": "3 mg single dose IV, 4 hours", "excerpt": "3. Reverse Passive Arthus Reaction in Rats\nThe reverse passive Arthus reaction in rats is a modification of the method by Mulligan et al., as described in J. Clin. Invest. (1991) 88: 1396-1406. This is an experimental model in which the interaction of antigen-antibodycomplexes and complement leads to a severe vasculitis that is associated with edema, induration, erythema and hemorrhage. The interaction between the antigen-antibody complexes and complement leads to a localized influx of neutrophils. These neutrophils release a variety of mediators that are associated with tissue damage and vascular permeability. The localized inflammatory reaction is measured using different techniques i.e., vascular permeability and neutrophil influx which is evaluated both biochemically and microscopically.\nMale Sprague Dawley specific pathogen-free rats with jugular vein cannulae (280-320 g, Hill Top Labs, Pa.) are used in these studies. Animals are acclimated for at least 1 day and individually housed in stainless steel cages. The dorsal region of the rats is closely clipped 2 days prior to the experiments and divided into 4 sites on each side of the midline. Prior to all injections the rats are sedated with 0.4 ml per 300 gm rat of ketamine/rompun [1000 mg (10 ml) of ketamine HCL is mixed with 40 mg (2.0 ml) Rompun] administered IP and or inhalation anesthesia with metafane (methoxyflurane).\nBovin Serum Albumin (BSA) and rabbit polyclonal IgG rich in anti-BSA are purchased from Sigma Chemical Co. (St. Louis, Mo.). Radiolabelled ^125 I-BSA (spAct 1-5 μCi/μg) is purchased from Dupont NEN (Boston, Mass.).\nEach rat is administered intradermal (ID) injection of (0.4 mg, 0.6 mg and 0.8 mg) anti-BSA in a volume of 100 μl per injection in normal saline. The ID injections are randomized near the mid dorsal region on both sides of the back bone. Immediately after the ID injections of the anti-BSA, the rats are administered intravenous (IV) injections of BSA (10 mg in 1.0 ml) in normal saline containing ^125 I labeled BSA (1 μCi/ml BSA or 5.0 μCi/kg body wt) for quantification of dermal vascular injury. Anti-inflammatory agents such as inhibitors of adhesion molecules of the present invention are administered IV at a single dose of 3 mg immediately after BSA. Four (4) hours after the IV injection of BSA, the rats are anesthetized with metafane and 2 to 3 ml of blood is withdrawn via the cannula into an anticoagulant containing (EDTA or Heparin) tube and plasma separated and saved for neutrophil and albumin quantitation. The rats are killed and the skin surrounding the injection site (15 mm diameter) is punched out and weighed. The skin samples and a fixed volume of plasma (0.1 to 1.0 ml) is analyzed in a gamma-counter for ^125 I content. Skin samples from the contralateral side are processed and analyzed for myeloperoxidase activity (MPO) as a measure of neutrophil accumulation. As needed, samples are also processed for histological evaluation of the reacted sites.\nVascular Permeability (VP)\nThe calculation of the plasma protein exudation into skin is made by determining the radioactivity in the tissue and relating this to the level of radioactive albumin in the blood at the time of sacrifice. […] [formula]\nPercent inhibition of the test compound at 3 mg was determined as follows: [formula] Myeloperoxidase (MPO)\nMPO is located in the azurophil granules of polymorphonuclear leukocytes (PMN). Because of its abundance in these cells (5% dry weight), this enzyme is used as a marker for tissue neutrophil content. For tissue MPO content, the method of Bradley, et al., was used as described in J. Invest. Dermatol. (1982) 78: 206-209. Biopsies from each treatment group were placed in plastic tubes (15×100 mm) containing 10 ml of 0.5% hexadecyltrimethylammonium bromide (HTAB) in 0.05M potassium phosphate buffer pH 6.0. The tissue was then homogenized with a Brinkmann Polytron homogenizer (10s). […]"}, "P-selectin [2]": {"system": "P-selectin", "settings": "Larsen et al.; Erbe et al.; Aruffo et al.; cited from earlier work"}, "P-selectin [3]": {"system": "P-selectin", "settings": "cells grown in the presence of sodium selenate; cited from earlier work"}, "P-selectin [4]": {"system": "P-selectin", "settings": "Skinner et al.; cited from earlier work"}}, "data": [{"compound": "CCCCCCCCCCCCC/C=C/[C@@H](OC(=O)c1ccccc1)[C@H](CO[C@H]1O[C@H](COS(=O)(=O)O)[C@H](OS(=O)(=O)O)[C@H](OS(=O)(=O)O)[C@H]1OS(=O)(=O)O)NC(=O)CCCCCCCCCCCCCCC", "note": "[Example 23, (2S,3R,4E)-3-Benzoyloxy-2-hexadecanoylamino-1-[2,3,4,6-tetra-O-(sodiumoxysulfonyl)-α-D-galactopyranosyloxy]-4-octadecene]", "values": [{"measurement": "IC50", "setting": "P-selectin [1]", "value": "> 8000", "unit": "nM"}, {"measurement": "IC50", "setting": "P-selectin Rg", "value": 2600, "unit": "nM"}, {"measurement": "RPA MPO % Inhib.", "setting": "rats; myeloperoxidase", "value": 26.4, "unit": "%"}, {"measurement": "RPA VP % Inhib.", "setting": "rats; vascular permeability", "value": 0, "unit": "%"}]}, {"compound": "CC(=O)N[C@H]1C(O)O[C@H](CO)[C@@H](O[C@@H]2O[C@H](CO)[C@H](O)[C@H](O)[C@H]2O)[C@@H]1O[C@@H]1O[C@@H](C)[C@@H](O)[C@@H](O)[C@@H]1O", "note": "(stereo partly shown) [Le^x]", "values": [{"measurement": "P-selectin has been shown to bind", "setting": "P-selectin [2]", "value": "shown to bind"}]}, {"compound": "O=[Se](=O)(O)O", "note": "[sodium selenate]", "values": [{"measurement": "binding of P-selectin to myeloid cell lines", "setting": "P-selectin [3]", "value": "can be inhibited"}]}, {"compound": "dextran sulfate", "values": [{"measurement": "inhibit P-selectin mediated adhesion", "setting": "P-selectin [4]", "value": "inhibit P-selectin mediated adhesion"}]}, {"compound": "fucoidan", "values": [{"measurement": "inhibit P-selectin mediated adhesion", "setting": "P-selectin [4]", "value": "inhibit P-selectin mediated adhesion"}]}, {"compound": "heparin", "values": [{"measurement": "inhibit P-selectin mediated adhesion", "setting": "P-selectin [4]", "value": "inhibit P-selectin mediated adhesion"}]}, {"compound": "sialyl-Le^x", "values": [{"measurement": "P-selectin has been shown to bind", "setting": "P-selectin [2]", "value": "shown to bind"}]}]}
